{"source": "patent EP4813464A2", "about": "“PEPTIDE FOR PREVENTING AND TREATING FIBROSIS” (priority 2021, dated 2022)", "key": {"[1]": {"format": "in vivo, C57BL/6J mice", "conditions": "bleomycin mice, treatment from day 7, day 0 to day 22; peptides 30 mg/kg subcutaneously three times a week, nintedanib 100 mg/kg orally daily; FIG. 8b", "text": "Based on results of measuring the change in body weight from day 0 to day 22, the body weight decreased until day 7 after administration of bleomycin, but increased after treatment with the peptide according to the present invention and nintedanib (FIG. 8b), and weight loss due to toxicity of the peptide according to the present invention and nintedanib was not observed."}, "[2]": {"tested_on": "animal model in which lung disease was induced with bleomycin", "assay": "Bleomycin-induced lung disease model, lung histology", "format": "in vivo, C57BL/6J mice", "conditions": "day 22; peptides 30 mg/kg subcutaneously three times a week, nintedanib 100 mg/kg orally daily; peptides compared to NT group and nintedanib group; FIG. 8c", "description": "C57BL/6J mice (male, 7 weeks old) were purchased from Charles River. Mice were anesthetized by intraperitoneal administration of a mixture of Imalgene (ketamine, 100 mg/kg)/Rompun (xylazine, 20 mg/kg), and a total of 50 µl of bleomycin sulfate (1.45 mg/kg, MBcell, CA, USA) was injected intratracheally once, and saline was injected intratracheally in the normal group (day 0). On day 7, mice were divided into groups, each consisting of eight. PBS (NT), SEQ ID NO: 1 (30 mg/kg), and SEQ ID NO: 2 (30 mg/kg) were administered subcutaneously three times a week, and nintedanib (Fluorochem Ref = 050741, 100 mg/kg) was administered orally daily. Each of the peptides of SEQ ID NO: 1 and SEQ ID NO: 2 was administered after dissolution in water for injection, and nintedanib was administered after mixing with water containing 0.5% hydroxyethylcellulose (Sigma; lot BCBV5033) and 0.01% Tween 80 (Sigma; lot BCBR6211V). While administering the drug for 21 days, body weight was measured every 2 days, and whether there were other clinical symptoms were checked.\nAfter mice were sacrificed with isoflurane on day 22, lung tissue was excised therefrom and histological analysis was performed. […]\nIn order to quantify the fibrotic change, the area of the red (fibrotic portion) was quantified in the sample stained with Sirius Red."}}, "data": [{"smiles": "COC(=O)c1ccc2c(c1)NC(=O)/C2=C(\\Nc1ccc(N(C)C(=O)CN2CCN(C)CC2)cc1)c1ccccc1", "note": "[nintedanib]", "values": [{"measurement": "change in body weight", "setting": "[1]", "value": "increased"}, {"measurement": "fibrous deposition in the lungs (Sirius Red and hematoxylin/phloxine staining, microscopy)", "setting": "[2]", "value": "some therapeutic effect, but a lot of deposited fibrous tissue was still observed"}]}]}
